The values that follow come from patent US7687482B2, “Bisphosphonate compounds and methods” (The Board of Trustees of the University of Illinois, priority 2006, dated 2010).

Read-outs that look alike come from different tables or passages of the source.

The target of test [1] is T1, Human FPPS (Homo sapiens, UniProt P14324).
T1 sequence (P14324 1-419): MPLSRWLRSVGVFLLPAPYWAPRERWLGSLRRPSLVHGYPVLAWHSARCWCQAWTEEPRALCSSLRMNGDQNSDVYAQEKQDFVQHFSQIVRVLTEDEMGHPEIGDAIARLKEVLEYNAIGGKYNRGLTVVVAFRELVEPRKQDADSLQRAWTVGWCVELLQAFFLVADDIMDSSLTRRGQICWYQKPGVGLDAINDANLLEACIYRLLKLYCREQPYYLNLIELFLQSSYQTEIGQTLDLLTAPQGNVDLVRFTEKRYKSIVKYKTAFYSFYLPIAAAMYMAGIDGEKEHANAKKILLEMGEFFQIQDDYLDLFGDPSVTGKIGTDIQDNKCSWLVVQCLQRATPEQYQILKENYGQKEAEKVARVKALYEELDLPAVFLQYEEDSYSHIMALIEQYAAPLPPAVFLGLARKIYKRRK
Nature of the test: Human FPPS inhibition. The format is biochemical.

Test [2] has as its system Gammadelta T cell. Nature of the test: Gammadelta T cell stimulation. Type of test: cell-based, human.
Test [3] has as its system D. discoideum. Nature of the test: D. discoideum growth inhibition. Type of test: cell-based, Dictyostelium discoideum.
Test [4] concerns the target T. brucei FPPS (Trypanosoma brucei, UniProt Q57WF1). The experiment in a line: biochemical.
The test system of test [5] is NCI-H460 cell. Nature of the test: Tumor cell growth inhibition, NCI-H460. As to conditions: lung cancer cell line. The format is cell-based, human. As for the experimental part: (§1) Bisphosphonate compounds were tested regarding tumor cell growth inhibition. […] See Table 1 and FIG. 3 showing dose-response data.
The subject of test [6] is SF-268 cell. Nature of the test: Tumor cell growth inhibition, SF-268. Type of test: cell-based, human. To be noted: central nervous system (glioblastoma) cell line. The procedure:
as §1

Test [7] deals with MCF-7 cell. Nature of the test: Tumor cell growth inhibition, MCF-7. The format is cell-based, human. To be noted: breast cancer cell line. As for the experimental part:
as §1

The target of test [8] is undecaprenyl diphosphate synthase (UPPS) (Escherichia coli, UniProt P60472). The experiment in a line: UPPS inhibition. Type of test: biochemical. As for the experimental part: Certain compounds were also tested regarding the ability to inhibit undecaprenyl diphosphate synthase (UPPS). See results in Table 2. […] For example, an antibacterial treatment can include contacting a bacterial cell with a compound of the invention. In an embodiment, a bacterial cell can be, e.g., a Gram negative organism such as E. coli or a Gram positive organism such as Staphylococcus aureus.
Sequence of undecaprenyl diphosphate synthase (UPPS) (P60472 whole entry): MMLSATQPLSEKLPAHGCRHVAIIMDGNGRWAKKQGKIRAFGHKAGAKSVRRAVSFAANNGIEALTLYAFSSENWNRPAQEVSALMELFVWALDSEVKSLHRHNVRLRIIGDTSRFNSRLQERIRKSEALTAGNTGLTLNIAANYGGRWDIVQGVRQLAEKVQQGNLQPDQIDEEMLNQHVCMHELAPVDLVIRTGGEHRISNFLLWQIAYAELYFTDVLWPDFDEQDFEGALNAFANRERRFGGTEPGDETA

The subject of test [9] is E. coli. The experiment in a line: Anti-bacterial activity in E. coli. Type of test: cell-based, Escherichia coli. An excerpt:
We considered aspects of mevalonate and non-mevalonate pathway gene regulation.

Where [10] appears, read: Dictyostelium discoideum; read-out: D. discoideum IC50.

Sequence of T. brucei FPPS (Q57WF1 entry or part of it): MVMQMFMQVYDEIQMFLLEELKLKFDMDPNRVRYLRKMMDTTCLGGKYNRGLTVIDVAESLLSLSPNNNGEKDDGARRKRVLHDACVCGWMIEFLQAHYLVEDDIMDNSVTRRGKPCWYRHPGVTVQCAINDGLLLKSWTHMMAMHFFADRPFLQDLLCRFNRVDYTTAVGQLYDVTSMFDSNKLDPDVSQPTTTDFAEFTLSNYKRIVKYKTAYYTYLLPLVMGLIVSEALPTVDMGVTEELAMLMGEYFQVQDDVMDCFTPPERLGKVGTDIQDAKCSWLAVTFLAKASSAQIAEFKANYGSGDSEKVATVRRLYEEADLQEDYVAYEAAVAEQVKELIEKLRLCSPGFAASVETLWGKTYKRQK

Consider “1-hydroxy-3-(trimethylphosphoniumyl)propylidene-1,1-bisphosphonic acid [Compound 9]”, for which the Ki (in general, a measure of affinity in units of concentration, obtained from inhibition or displacement) in [1] amounted to 0.0226 µM. Besides, the EC50 – broadly, the midpoint of the concentration-response curve – in test [2] was 1800 µM. Also, the IC50 (commonly the concentration that gives 50% inhibition) in [3] (read-out: D. discoideum IC50) was 207 µM.
On to `NCCC(O)(P(=O)(O)O)P(=O)(O)O` [1 (Pamidronate), Pamidronate, reference compound], for which the half-maximal inhibitory concentration (IC50) in [3] (setting [10]) was 167 µM.
`NCCCC(O)(P(=O)(O)O)P(=O)(O)O` [2 (alendronate), alendronate, reference compound]: in test [2] (Homo sapiens, T-cell), the 50% effective concentration (EC50) turned out to be 52 µM. Moreover, the 50% inhibitory concentration (IC50) in test [3] (setting [10]) stood at 32 µM.
In test [2] (Homo sapiens, T-cell), `O=P(O)(O)C(O)(Cc1cccnc1)P(=O)(O)O` [3 (risedronate), risedronate, reference compound] came in with an EC50 of 6.2 µM.
Take `O=P(O)(O)C(O)(Cn1ccnc1)P(=O)(O)O` [4 (zoledronate), zoledronate, reference compound]: the concentration for half-maximal inhibition (IC50) came out at 1.9 µM in test [3] (Dictyostelium discoideum, read-out: D. discoideum IC50) and 0.32 µM in test [4].
For `O=P(O)(O)C(O)(C[S+]1CCCCC1)P(=O)(O)O` [Compound 6, 1-hydroxy-2-(pentamethylenesulfoniumyl)ethylidene-1,1-bisphosphonic acid], in [2], the 50% effective concentration (EC50) is 22.1 µM. For the same compound, the IC50 is 4.78 µM in test [3] (read-out: D. discoideum IC50) and 0.4 µM in test [4] (read-out: T. brucei FPPS IC50).
Regarding `C[P+](C)(C)CC(O)(P(=O)(O)O)P(=O)(O)O` [Compound 7, 1-hydroxy-2-(trimethylphosphoniumyl)ethylidene-1,1-bisphosphonic acid], affinity in test [1] was put at a Ki of 0.00818 µM. This compound also gave an EC50 in [2] of 127 µM. For the same compound, the half-maximal inhibitory concentration (IC50) in [3] (read-out: D. discoideum IC50) came to 13.8 µM; in test [4] (read-out: T. brucei FPPS IC50) it was 2 µM.
In turn, `CC[S+](CCCOc1ccccc1)CCC(O)(P(=O)(O)O)P(=O)(O)O` (centres unmarked) [Compound 16, 1-hydroxy-3-(S-ethyl-3-phenoxypropylsulfoniumyl)propylidene-1,1-bisphosphonic acid] yielded a Ki in [1] of 0.0052 µM. This compound showed a half-maximal effective concentration (EC50) in test [2] of 199 µM. Further, the IC50 in test [3] (read-out: D. discoideum IC50) came out at 4.23 µM.
In test [1], `C[S+](CCCc1ccccc1)CC(O)(P(=O)(O)O)P(=O)(O)O` (centres unmarked) [Compound 23, 1-hydroxy-2-(S-methyl-3-phenylpropylsulfoniumyl)ethylidene-1,1-bisphosphonic acid] gave an inhibitory constant (Ki) of 0.00568 µM. In addition, the IC50 in test [3] (read-out: D. discoideum IC50) is 1.85 µM; in test [4] (read-out: T. brucei FPPS IC50) it was 0.18 µM.
Turning to `O=P(O)(O)C(Cc1ccc(Br)c(Br)c1)P(=O)(O)O` [Compound 491, 2-(3,4-Dibromophenyl)ethylidene-1,1-bisphosphonic acid], the 50% inhibitory concentration (IC50) was found to be 446 µM in [5], 349 µM in test [6] and 533 µM in test [7].
For the compound `CC(C)(C)C(=O)OCOP(=O)(OCOC(=O)C(C)(C)C)C(Cc1ccc(Br)c(Br)c1)P(=O)(OCOC(=O)C(C)(C)C)OCOC(=O)C(C)(C)C` [Compound 493, Tetrakis-pivaloyloxymethyl 2-(3,4-dibromophenyl)ethylidene-1,1-bisphosphonate], the IC50 was found to be 0.62 µM in [5], 0.65 µM in [6] and 0.22 µM in [7].
Turning to `CC(C)(C)C(=O)OCOP(=O)(OCOC(=O)C(C)(C)C)C(Cc1ccc(Cl)c(Cl)c1)P(=O)(OCOC(=O)C(C)(C)C)OCOC(=O)C(C)(C)C` [Compound 494, Tetrakis-pivaloyloxymethyl 2-(3,4-dichlorophenyl)ethylidene-1,1-bisphosphonate], the IC50 in [5] came to 2.7 µM; in test [6] it was 1.43 µM; in [7] it was 0.34 µM.
As for `CC(C)OC(=O)OCOP(=O)(OCOC(=O)OC(C)C)C(Cc1ccc(Cl)c(Cl)c1)P(=O)(OCOC(=O)OC(C)C)OCOC(=O)OC(C)C` [Compound 495, Tetrakis-isopropoxycarboxymethyl 2-(3,4-dichlorophenyl)ethylidene-1,1-bisphosphonate], the IC50 was 4.85 µM in test [5], 4.78 µM in test [6] and 1.97 µM in [7].
As to `O=P(O)(O)C(O)(Cc1cccc(-c2cccc(-c3ccccc3)c2)c1)P(=O)(O)O` [Compound 608, 1-Hydroxy-2-[3-(3-phenylphenyl)phenyl]ethylidene-1,1-bisphsophonic acid], the IC50 in [8] was determined as 0.61 µM; in [5] (Homo sapiens, NCI-H460) it was 140 µM; in [6] (Homo sapiens, SF-268), 130 µM; in test [7] (Homo sapiens, MCF7), 152 µM.
`O=P(O)(O)C(O)(CCc1cccc(-c2ccc(-c3ccccc3)cc2)c1)P(=O)(O)O` [Compound 618, 1-Hydroxy-3-[3-(4-phenylphenyl)phenyl]propylidene-1,1-bisphosphonic acid]: the concentration for half-maximal inhibition (IC50) in [8] came out at 12.5 µM; in test [5], 132 µM; in test [6] it was 175 µM; in [7] it was 196 µM.
With `O=P(O)(O)C(O)(CCc1cccc(-c2ccccc2-c2ccccc2)c1)P(=O)(O)O` [Compound 621, 1-Hydroxy-3-[3-(2-phenylphenyl)phenyl]propylidene-1,1-bisphosphonic acid], the half-inhibitory concentration (IC50) came out at 7.51 µM in test [8]; 133 µM in [5] (Homo sapiens, NCI-H460); 143 µM in test [6] (Homo sapiens, SF-268); 146 µM in test [7] (Homo sapiens, MCF7).
In the same order, the values of `O=P(O)(O)C(O)(CCc1cccc(-c2cccc(-c3ccccc3)c2)c1)P(=O)(O)O` [Compound 622, 1-Hydroxy-3-[3-(3-phenylphenyl)phenyl]propylidene-1,1-bisphsophonic acid] are 2.39 µM, 46.9 µM, 44.7 µM and 43.9 µM.
In the case of `O=P(O)(O)C(O)(Cc1cccc(-c2ccccc2-c2ccccc2)c1)P(=O)(O)O` [Compound 623, 1-Hydroxy-2-[3-(2-phenylphenyl)phenyl]ethylidene-1,1-bisphsophonic acid], the IC50 is 86.1 µM in test [5], 58 µM in [6] and 92.7 µM in test [7].
With `O=P(O)(O)C(O)(Cc1ccc(-c2ccccc2-c2ccccc2)cc1)P(=O)(O)O` [Compound 624, 1-Hydroxy-2-[4-(2-phenylphenyl)phenyl]ethylidene-1,1-bisphosphonic acid], the half-maximal inhibitory concentration (IC50) in [5] was 329 µM; in test [6], 475 µM; in test [7], 1060 µM.
As to `O=P(O)(O)C(O)(Cc1ccc(-c2cccc(-c3ccccc3)c2)cc1)P(=O)(O)O` [Compound 625, 1-Hydroxy-2-[4-(3-phenylphenyl)phenyl]ethylidene-1,1-bisphosphonic acid], the concentration for half-maximal inhibition (IC50) in test [8] was found to be 0.89 µM; in test [5] (Homo sapiens, NCI-H460), 413 µM; in test [6] (Homo sapiens, SF-268), 620 µM; in test [7] (Homo sapiens, MCF7), 412 µM.
Regarding `O=P(O)(O)C(O)(c1cccc(-c2cccc(-c3ccccc3)c2)c1)P(=O)(O)O` [Compound 640, 1-Hydroxy-[3-(3-phenylphenyl)phenyl]methylene-1,1-bisphsophonic acid], the 50% inhibitory concentration (IC50) in test [8] was 1.86 µM; in test [5] (Homo sapiens, NCI-H460), 285 µM; in test [6] (Homo sapiens, SF-268) it was 303 µM; in [7] (Homo sapiens, MCF7), 310 µM.
Consider `CC(C)(C)C(=O)OCOP(=O)(OCOC(=O)C(C)(C)C)C(Cc1cccc(-c2cccc(-c3ccccc3)c2)c1)P(=O)(OCOC(=O)C(C)(C)C)OCOC(=O)C(C)(C)C` [Compound 647, Tetrakis-pivaloyloxymethyl 2-[3-(3-phenylphenyl)phenyl]ethylidene-1,1-bisphosphonate], for which the IC50 in test [5] was found to be 1.64 µM; in test [6], 2.38 µM; in test [7], 2.62 µM.
For the compound `O=CN(O)CCCP(=O)(O)O` [fosmidomycin], in [9], the anti-bacterial properties entry is on record as “anti-bacterial properties”.
For “Tetrakis-isopropoxycarboxymethyl 2-(3,4-difluorophenyl)ethylidene-1,1-bisphosphonate [Compound 496]”, the IC50 in [5] amounted to 20.1 µM; in test [6], 28.3 µM; in [7], 15.2 µM.
With “Tetrakis-isopropoxycarboxymethyl 2-(3-cyanophenyl)ethylidene-1,1-bisphosphonate [Compound 498]”, the results for the IC50 in test [5], in test [6] and in test [7] were 22.6 µM, 7.77 µM and 58.6 µM, respectively.
